Consider one substance from article PMC8123395, “Aggregation and Its Influence on the Bioactivities of a Novel Antimicrobial Peptide, Temporin-PF, and Its Analogues” (International Journal of Molecular Sciences, 2021).

No end group written: not given here.

Series [1] has as its system S. aureus (NCTC 10788). The experiment in a line: SYTOX Green stain uptake assay (membrane permeabilization). The conditions noted are these: peptide 10 µM, within 120 min, 37 °C, relative to 70% isopropanol-treated cells, three replicates. The series is classed as cell-based. The method, then:
Figure 10 Membrane permeabilization effect of TPF and the analogs (10 µM) on Gram-positive bacteria S. aureus was indicated by the uptake of SYTOX Green dye over 120 min. The error bar represents SD of three replicates.
A membrane permeability assay was conducted on S. aureus (NCTC 10788) and E.coli (NCTC 10418) using the SYTOX™ Green Nucleic Acid Stain (Thermo Fisher Scientific, Waltham, MA, USA) as described previously, with some modifications. For S. aureus, to obtain the fluorescence kinetics of membrane permeabilization, the bacterial suspension and peptide solutions, prepared in 5% tryptic soy broth (TSB) (v/v) in 0.85% NaCl solution (m/v), were mixed to give a final concentration at 10 µM in a black 96-well plate, and further incubated for 120 min at 37 °C. Subsequently, 5 µM SYTOX Green nucleic acid stain was added into each well and immediately detected by a fluorescent plate reader with excitation of 485 nm and emission of 528 nm. The total permeabilized cells of S. aureus were prepared by treating with 70% isopropanol and further resuspended in 5% TSB/0.85% NaCl solution after washing.

Series [2] in a line: RP-HPLC retention order of mixed peptides (overall hydrophobicity). The note with it: peptides mixed in equal ratio and subjected to RP-HPLC; Supplementary Figure S4. The series is classed as physicochemical. The method, then:
All peptides were chemically synthesized and purified by RP-HPLC. They were further mixed with an equal ratio and subjected to RP-HPLC. […] Subsequently, all peptides (1 mg/mL) were dissolved in a series of widely used culture media (Figure 2).
N-terminal Phe of temporin was believed to participate in the packaging of “head-tail” oligomerization. […] Furthermore, Trp/D-Trp substitution carried out on des-Phe1 TPF enhanced the peptide aggregation. […] It may be related to the decrease of the helical content; however, it could also be caused by the change of aggregation effects. Previous studies have shown that AMPs with strong antimicrobial activity are present as monomers in an aqueous solution and aggregate on the membrane to disrupt the bacterial cell membrane. […] It has been proposed that some aggregation effects of AMPs could limit the interaction of the peptide with its target, thereby reducing the antibacterial efficacy. In the previous study, the zipper-like motif is associated with the bioactivities as well as the assembly in the LPS micelles, which was considered to arise from hydrophobic interactions mainly. However, the overall hydrophobicity of Trp/D-Trp substituted analogs is less than that of des-Phe1 TPF, as estimated by RP-HPLC analysis. We hypothesize that the enhanced assembly seen for Trp/D-Trp substituted analogs might be related to the increased content of aromatic residues, because it could promote the strength of π stacking or cation-π type interaction. However, the true relation has not been fully clarified so far, and the capability of aromatic moieties to promote aggregation could also be affected by the hydrophobicity, position, and the neighboring side chains in their three-dimensional conformation.

On to LPLIAGLFGKIF-NH2 [des-Phe1 TPF], for which, in series [1], the membrane permeabilization entry is on record as “over 50%”. Besides, the “order of retention time (RP-HPLC, used as estimate of overall hydrophobicity)” value in series [2] is on record as “TPF> des-Phe1 TPF> W-des-Phe1 TPF> dW-des-Phe1 TPF”.
